According to ChEMBL document CHEMBL1130905, “Asymmetric synthesis of antimitotic combretadioxolane with potent antitumor activity against multi-drug resistant cells” (Bioorg Med Chem Lett, 1998):

Experiments:
[1] = biological target: T1, Tubulin (Sus scrofa, UniProt P02554+P02550); experiment: In vitro tubulin polymerization-inhibitory activity.; assay type: protein assay
[2] = test system: PC-12; experiment: Compound was evaluated for in vitro growth inhibition activity against multi drug resistant (MDR) PC-12 cell line.; assay type: functional; details: Rattus norvegicus
[3] = test system: PC-6; experiment: Compound was evaluated for in vitro growth inhibition activity against sensitive PC-6 cell line.; assay type: functional, Rattus norvegicus
[4] = biological target: T1, Tubulin; experiment: In vitro tubulin polymerization-inhibitory activity; 4-6; assay type: protein assay

Compound | IC50 [1] | GI50 [2] | GI50 ([3]; Homo sapiens) | IC50 [4] | GI50 ([3]; Rattus norvegicus)
COc1ccc([C@H]2OCO[C@@H]2c2cc(OC)c(OC)c(OC)c2)cc1O | > 50 µM | – | – | – | –
COc1ccc([C@@H]2OCO[C@H]2c2cc(OC)c(OC)c(OC)c2)cc1O | – | 5.19 nM | 5.41 nM | 4 µM | –
CC[C@]1(O)C[C@H]2CN(CCc3c([nH]c4ccccc34)[C@@](C(=O)OC)(c3cc4c(cc3OC)N(C=O)[C@H]3[C@@](O)(C(=O)OC)[C@H](OC(C)=O)[C@]5(CC)C=CCN6CC[C@]43[C@@H]65)C2)C1 [VINCRISTINE] | – | 104 nM | 1.14 nM | – | –
CISPLATIN | – | 300 nM | – | – | 563 nM
